Reference: patent US8313901B2, “Methods and compositions related to the modulation of riboswitches” (Yale University, priority 2005, dated 2012)
pKd: −log10 of the molar value.

Columns and labels:
ribD RNA = settings: cited from earlier work
glmS ribozyme [1] = assay: Electrophoretic in-line probing of analog binding to glmS ribozyme
glmS ribozyme [2] = assay: High-throughput FRET fluorescence screen of substrate cleavage by bimolecular glmS ribozyme (Example 1, Method 1); assay type: biochemical; settings: for Fl21 h/Flg h: fluorescence ratio, high-throughput fluorescence screen, 21 h
Experimental: The naturally occurring glmS RNA element catalyzes self-cleavage in the presence of modest concentrations (>100 μM) of glucosamine-6-phosphate (Gln6P, FIG. 1A). In the absence of this important metabolite, no cleavage activity is observed. Although the natural sequence of the glmS element forms a unimolecular cis-cleaving ribozyme, active glmS ribozyme can also be constructed as a biomolecular […] ribozyme. In this format, the cleaved strand, termed the substrate, includes the 5′ base pairs that form half of the pairing element 1 (P1) and the conserved nucleotides upstream P1 (FIG. 1B). The non-cleaved ribozyme strand includes the 3′ half of P1 and the remaining sequence of the glmS element. Using this biomolecular format, the 16-nucleotide substrate strand was labeled at the 3′ and the 5′ ends with the fluorescently probes fluorescein (F1) and cy3, respectively. In an uncleaved substrate RNA, emission of the excited state fluorescein is quenched by the enforced proximity of the cy3 quencher. Upon cleavage in the presence of the Gln6P system, the binding of Gln6P (or related derivatives) to the glmS riboswitch can be rapidly screened using standard high-throughput techniques.
After a minimum of 10 hours incubation, the fluorescence intensity of FI increased ˜4 fold in the presence of 160 μM glucosamine-6-phosphate, whereas no observable change was detected in the absence of effector (FIG. 2). […] To further explore the discriminatory limits of this detection system, a library of sixteen Gln6P derivatives was also screened. The resulting glmS binding activities correspond well with the binding activities independently determined by gel electrophoresis methods (Table 1). Detection systems are also being used to screen a novel library of 20,000 compounds (Microsource Discovery Systems, Inc.) unrelated to Gln6P for binding the glmS ribozyme.

[3] = test system: unimolecular glmS ribozyme; settings: cited from earlier work
[4] = test system: bimolecular glmS ribozyme; assay: Single reaction FRET-based kinetic assay of glmS cleavage; assay type: biochemical, S. aureus; settings: 40 μM GlcN6P, within 20 minutes
Experimental: Low-throughput glmS kinetic analyses. All kinetic assays were conducted in 50 mM HEPES (pH 7.5 at 25° C.), 10 mM MgCl2, and 200 mM KCl. To initiate the reaction, GlcN6P was added to give a final concentration of 200 μM. Kinetic assays with radiolabeled substrate were performed as described previously (Soukup, Nucleic Acids Res 2006; 34: 968-975). Rate constants were established by plotting the natural logarithm of the fraction of substrate remaining uncleaved versus time, and then determining the negative slope of the resulting line. For the highest rate constants, only the initial phase of the plots were used because ˜20% of the RNA substrate remained uncleavable. […]
To enable FRET detection of cleavage, the substrate was synthesized with a 5-(and 6-)-carboxyfluorescein (5/6-FAM) donor at the 3′ end and a Cy3™ acceptor at the 5′ end. […] When the substrate strand is intact, however, the fluorescence of 5/6-FAM is reduced presumably due to quenching by the proximal Cy3™ acceptor. After addition of GlcN6P and cleavage of the substrate strand, the two product strands dissociate, relieving the proximity of 5/6-FAM and Cy3™, with a concomitant increase of 5/6-FAM fluorescence. Similar fluorescence-based systems have been used to detect ribozyme cleavage in real time (Singh et al., RNA 1999; 5: 1348-1356; Hanne et al., Nucleosides Nucleotides 1998; 17: 1835-1850). […]

[5] = test system: bimolecular glmS ribozyme; assay: Kinetic assay with 5'-radiolabeled substrate; assay type: biochemical, S. aureus; settings: 0.5 μM ribozyme, 200 μM GlcN6P, saturating substrate, 25° C.
Experimental: Low-throughput glmS kinetic analyses. All kinetic assays were conducted in 50 mM HEPES (pH 7.5 at 25° C.), 10 mM MgCl2, and 200 mM KCl. To initiate the reaction, GlcN6P was added to give a final concentration of 200 μM. Kinetic assays with radiolabeled substrate were performed as described previously (Soukup, Nucleic Acids Res 2006; 34: 968-975). Rate constants were established by plotting the natural logarithm of the fraction of substrate remaining uncleaved versus time, and then determining the negative slope of the resulting line. For the highest rate constants, only the initial phase of the plots were used because ˜20% of the RNA substrate remained uncleavable. Single reaction FRET-based kinetic assays were performed with λexcit=488 nm (slit width=1 nm), λemit=523 nm (slit width=8 nm).
Although the glmS ribozyme sequence is highly conserved among many bacterial species, the S. aureus sequence was chosen for screening development because of its clinical importance. To facilitate detection of cleavage, the natural self-cleaving glmS ribozyme was converted to a bimolecular ribozyme (FIG. 6B) in which separate substrate and ribozyme oligonucleotides associate via a truncated P1 stem. […]

glmS riboswitch = settings: cited from earlier work
[6] = test system: bimolecular glmS ribozyme; assay: High-throughput glmS assay, FRET in 384-well plates (Example 2); assay type: biochemical, S. aureus; settings: for relative fluorescence (relative to time zero): 200 μM
Experimental: High-throughput glmS assay. High-throughput fluorescence assay validation and screening was performed in 384-well black polypropylene plates (Corning part number 3677) in a 10 μL solution of 50 mM HEPES (pH 7.5 at 25° C.), 10 mM MgCl2, and 200 mM KCl, with 0.01% SDS where indicated in the text. A Tecan Aquarius multichannel pipettor (Tecan Group, LTD, Switzerland) was used for automated liquid handling. In a typical experiment, a reaction mixture containing buffer and both RNA domains was transferred into the assay plates with the liquid handler, the fluorescence was measured, and the reaction was initiated by the addition of ˜50 nl of either GlcN6P, an analog of GlcN6P, or a library compound suspended at 10 mM in DMSO using the Tecan pin tool (˜50 μM final concentration of compound). Plates were sealed with non-breathable sealing tape and protected from light for the specified incubation time, at which point the plate was briefly centrifuged and the fluorescence measured. All multiplate fluorescence measurements were conducted with a Wallach Envision (Perkin Elmer, Wellesly, Mass.) plate reader with a 480 nm excitation filter (30 nm bandwidth) and a 535 nm emission filter (25 nm bandwidth).
To enable FRET detection of cleavage, the substrate was synthesized with a 5-(and 6-)-carboxyfluorescein (5/6-FAM) donor at the 3′ end and a Cy3™ acceptor at the 5′ end. When excited at 485 nm, the 5/6-FAM donor normally emits at a maximum wavelength of 526 nm. When the substrate strand is intact, however, the fluorescence of 5/6-FAM is reduced presumably due to quenching by the proximal Cy3™ acceptor. After addition of GlcN6P and cleavage of the substrate strand, the two product strands dissociate, relieving the proximity of 5/6-FAM and Cy3™, with a concomitant increase of 5/6-FAM fluorescence. Similar fluorescence-based systems have been used to detect ribozyme cleavage in real time (Singh et al., RNA 1999; 5: 1348-1356; Hanne et al., Nucleosides Nucleotides 1998; 17: 1835-1850). Using this FRET detection strategy, the addition of 40 μM GlcN6P induces an increase in the fluorescence signal of greater than 6 fold within 20 minutes (FIG. 7B). The modest burst in fluorescence increase could be due to a conformational change in the substrate that occurs upon ligand binding. Tertiary contacts between ribozyme and substrate would constrain the substrate to a greater extent compared to that caused by the short base paired region, thus increasing the average distance between donor and acceptor. Importantly, no fluorescence increase was observed over this time course in the absence of either GlcN6P or the ribozyme.
To facilitate rapid solution-based measurement of cleavage for large compound libraries, the assay conditions were optimized for automated liquid handling and fluorescence measurement in 384-well microplates. To reduce demand for enzyme and substrate RNAs, the concentrations of these molecules were varied to determine the minimal concentration of each that can be used to give a reproducible and statistically significant increase in the fluorescent signal. At 10 nM of each strand, a 4-fold increase in fluorescence was observed after 68 hours when 100 μM GlcN6P was present (FIG. 7C). […] At incubation times less than 48 hours, the increase in fluorescence was noticeably less, most likely because the concentration of the two RNA strands is well below the measured dissociation constant of 0.2 μM, slowing the observed cleavage rate. […]

glmS ribozyme [7] = assay: PAGE / electrophoretic analysis of glmS ribozyme activation; assay type: biochemical, S. aureus; settings: after incubating for 2 hours
Experimental: This cutoff for functional compounds (“hits”) of 2.5-fold increased fluorescence represents a statistically significant 18 standard deviations over the mean fluorescence value in the absence of ligand (“NL”). […] A similar case exists for glucosamine, which induces a 3.0-fold increase in fluorescence after 44 hours, even though its measured affinity for the ribozyme is more than 100-fold lower than GlcN6P (McCarthy et al., Chem Biol 2005; 12: 1221-1226). Thus, the fluorescent report from the high-throughput screen accurately reflects binding activity for the glmS ribozyme.
Each of the five compounds identified was retested for glmS activation with either the fluorescence screen or by electrophoretic methods. […] Moreover, these types of infrequent false-positive hits have been observed for other fluorescence-based high-throughput screens (Zhang et al., J Biomol Screen 2005; 10: 695-704) and can readily be confirmed or refuted in our case with the secondary ribozyme cleavage assay (Soukup and Breaker, RNA 1999; 5: 1308-1325). One possible explanation for the false positives is that they quench or otherwise modify the fluorescent label on the RNA over the 44 hour time course, or that the compounds become fluorescent over time. Nevertheless, the identification of glucosamine confirms that this screen can identify even low affinity glmS-activating compounds from complex compound libraries.

Cc1cc2nc3c(=O)[nH]c(=O)nc-3n(C[C@H](O)[C@H](O)[C@H](O)CO)c2cc1C [riboflavin]
discrimination against ligand relative to FMN (ribD RNA): approximately three orders of magnitude

N[C@H]1C(O)O[C@H](CO)[C@@H](O)[C@@H]1O (some centres unmarked) [Gln com]
Activity by electrophoretic in-line probing (glmS ribozyme [1]): Yes
Fl21 h/Flg h (glmS ribozyme [2]): 1.87

O=P(O)(O)OC[C@H]1OC(O)[C@H](O)[C@@H](O)[C@H]1O (some centres unmarked) [Gal6P]
Fl21 h/Flg h (glmS ribozyme [2]): 1.69

O=C[C@H](O)[C@@H](O)[C@H](O)[C@H](O)COP(=O)(O)O [glucose-6-phosphate]
activation of the glmS ribozyme [3]: cannot activate it

CC(=O)N[C@H]1C(O)O[C@H](COP(=O)(O)O)[C@@H](O)[C@@H]1O (some centres unmarked) [AcNGln 6P]
Activity by electrophoretic in-line probing (glmS ribozyme [1]): Weakly
Fl21 h/Flg h (glmS ribozyme [2]): 2.28

Cc1cc2nc3c(=O)[nH]c(=O)nc-3n(C[C@H](O)[C@H](O)[C@H](O)COP(=O)(O)O)c2cc1C [FMN, flavin mononucleotide]
pKd (ribD RNA; read-out: apparent KD): ~8.30

N[C@H]1C(O)O[C@H](COP(=O)(O)O)[C@@H](O)[C@@H]1O (some centres unmarked) [Gln6P, glucosamine-6-phosphate]
increase in the fluorescence signal [4]: greater than 6 fold
apparent rate constant of cleavage [5]: 0.25 min⁻¹
Activity by electrophoretic in-line probing (glmS ribozyme [1]): Yes
concentration that activates cleavage (glmS riboswitch; concentrations as low as): ≥ 1 µM
single-turnover rate constant (glmS riboswitch; previously reported): 1 min⁻¹
pKd (glmS riboswitch; read-out: apparent KD): 3.70
increase in fluorescence intensity of Fl (glmS ribozyme [2]; 160 μM glucosamine-6-phosphate, minimum of 10 hours incubation): ~4 fold
Fl21 h/Flg h (glmS ribozyme [2]): 3.36
increase in fluorescence ([6]; 10 nM of each strand, 100 μM GlcN6P, after 68 hours, 0.01% SDS): 4 fold
relative fluorescence (relative to time zero) ([6]; 21 hours): 3.5
relative fluorescence (relative to time zero) ([6]; 44 hours): 3.4
increase in fluorescence ([6]; screen of library of twelve GlcN6P analogs): 3.5 fold

C[N+](C)(C)C1C(O)OC(COP(=O)(O)O)C(O)C1O (centres unmarked) [Me3N-Gln 6P]
Activity by electrophoretic in-line probing (glmS ribozyme [1]): No
Fl21 h/Flg h (glmS ribozyme [2]): 1.27

COC1OC(COP(=O)(O)O)C(O)C(O)C1N (stereo not drawn) [β-MeO-Gln 6P]
Activity by electrophoretic in-line probing (glmS ribozyme [1]): No
Fl21 h/Flg h (glmS ribozyme [2]): 1.02

CNC1C(O)OC(COP(=O)(O)O)C(O)C1O (centres unmarked) [MeN-Gln 6P]
Activity by electrophoretic in-line probing (glmS ribozyme [1]): Yes
Fl21 h/Flg h (glmS ribozyme [2]): 3.49

N[C@H]1C(O)O[C@H](CO)[C@@H](O)[C@@H]1O (some centres unmarked) [glucosamine]
cleavage on a gel (glmS ribozyme [7]): stimulates detectable cleavage
increase in fluorescence ([6]; after 44 hours): 3.0 fold
activity in previously described glmS screen ([3]; after 30 minutes): no observable activity
activation of the glmS ribozyme [3]: cannot activate it

N[C@@H]1[C@@H](O)[C@H](O)[C@@H](COP(=O)(O)O)O[C@@H]1O [Gln6P com]
Activity by electrophoretic in-line probing (glmS ribozyme [1]): Yes
Fl21 h/Flg h (glmS ribozyme [2]): 2.24
